Results from patent US20060135625A1, “Method of administering split doses of a vascular targeting agent” (priority 2002, published 2006).

Experiments:
CaNT tumor vasculature = assay: functional vascular volume (Hoechst 33342) in CaNT tumors; type: in vivo, mice; details: for reduction in perfused vascular volume: CaNT, 24 hours post-treatment
Method: (§1) 1) Transplanted tumor model. A murine adenocarcinoma NT (“CaNT”) tumor was transplanted from a syngeneic donor and implanted subcutaneously onto the rear dorsum of 10-16 week old female CBA/Gy f TO mice, by injecting 0.05 ml of a crude cell suspension prepared by mechanical dissociation of the excised. Tumors were selected for treatment with the VTA CA4DP when the geometric mean diameter (“GMD”) reached 5-6.5 mm (150-300 mg), approximately 3-4 weeks after implantation.
(§2) In each of the following Examples 1-4, CA4DP (OXiGENE Inc, Watertown, Mass., USA) was dissolved in 0.9% saline at appropriate concentrations to allow each dose to be injected i.p. in 0.1 ml per 10 g body weight. 0.9% saline was used for control treatments.
(§3) The effect of VTA dose splitting on the tumor vascular response was also investigated in both CaNT and T138 tumor types, by measuring the functional vascular volume at 24 hours following treatment with single or split doses of CA4DP. Functional vascular volume is defined as the volume of tumor tissue perfused by tumor blood vessels, and is measured using the fluorescent DNA-binding dye Hoechst 33342 (Sigma-Aldrich Company Ltd., Dorset, UK) (Smith et al, British Journal of Cancer, 1988, 57: 247-253). The dye was dissolved in 0.9% saline at 6.25 mg/ml and injected i.v. at a dose of 10 mg/kg at 24 hours post-treatment. Tumors were excised and frozen 1 minute later. Sections were cut at three levels and observed under UV illumination. Functional vessels were identified by the fluorescent outline of perivascular tissue and vascular volumes were determined using a random point scoring system based on that described by Chalkley (Chalkley, J. Natl Cancer Inst., 1943, 4: 47-53). At least 100 fields were scored at each of the three tumor levels and the results for treated tumors were expressed as a percentage of control values.

[1] = system: murine adenocarcinoma NT (CaNT) tumor; assay: tumor growth delay in CaNT tumor-bearing mice; type: in vivo
Method: as §1, §2
(§4) The anti-tumor effect of split dosing therapy was also assessed by an analysis of tumor growth delay in both CaNT and T138 tumor-bearing mice. For experiments involving the CaNT, dose groups comprised 5 to 6 animals, whereas for the T138, 10 to 15 animals were used. Following initial drug treatment, tumor growth was determined by measuring the diameter of each tumor in 3 orthogonal orientations two or three days each week.
The effect of repeated split VTA dosing therapy was also assessed by an analysis of tumor growth delay in both CaNT tumor-bearing mice. […] Repeated administration of total daily dose (50 mg/kg) 5 days a week for 2 weeks, produced a significant delay in tumor growth of approximately 2 days. Tumor growth delay was further improved by repeat administration of split dosing (2 doses of 25 mg/kg per day separated by a 6 hour interval), 5 days a week for 2 weeks (growth delay of approximately 5 days).

[2] = system: microtubule assembly in tumor endothelium; details: cited from earlier work
T138 tumor vasculature = assay: functional vascular volume (Hoechst 33342) in T138 tumors; type: in vivo, mice; details: 24 hours post-treatment
Method: (§5) 2) Spontaneous T138 tumor model. The T138 tumor-bearing mice (“T138”) spontaneously developed mammary tumors between 5 and 18 months of age due to genetic predisposition.
as §2
as §3, with “The dye was dissolved in 0.9% saline at 6.25 mg/ml and injected i.v. at a dose of 10 mg/kg at 24 hours post-treatment. Tumors were excised and frozen 1 minute later. Sections were cut at three levels and observed under UV illumination.” left out

[3] = system: spontaneous T138 mammary tumors; assay: tumor growth delay in T138 tumor-bearing mice; type: in vivo
Method: as §5, §2, §4

[4] = system: murine adenocarcinoma NT (CaNT) tumor; assay: in vitro clonogenic (colony-forming) assay of tumor cells isolated from treated CaNT tumor-bearing animals; type: in vivo, mice
Method: as §1, §2
To compare the anti-tumor effect of single and divided VTA dose scheduling, the survival of tumor cells isolated from a treated CaNT tumor-bearing animals was assessed by an in vitro clonogenic (colony-forming) assay, as described previously (Chaplin et al., Anticancer Research, 1999, 19: 189-196). Tumors were excised 18-24 h after CA4P injection. Two tumors were combined for each data point, weighed, minced with scissors and then disaggregated for 1 hour at 37° C. in an enzyme cocktail of 1 mg/ml pronase, 0.5 mg/ml DNase and 0.5 mg/ml collagenase. Following digestion, samples were passed through a 25G needle and a 35 μm filter to obtain a single cell suspension. Haemocytometer counts of trypan-blue excluding cells were made and known numbers of viable cells added to a feeder layer of heavily irradiated V79-379A Chinese hamster cells. After 7-10 days incubation, colonies were fixed, stained with methylene blue and counted. The data were calculated as surviving fraction per gram of tumor, which is a product of relative surviving fraction and relative cell yield per gram of tumor. Each experimental group was repeated at least 3 times, so that at least 6 tumors contribute to each data point.

[5] = human plasma; cited from earlier work
tubulin = details: U.S. Pat. No. 4,996,237; cited from earlier work

Structure (SMILES) | reduction in perfused vascular volume (CaNT tumor vasculature; single 50 mg/kg dose) [%] | reduction in perfused vascular volume (CaNT tumor vasculature; two 25 mg/kg doses separated by 3 hours) [%] | reducing the fraction of perfused vascular volume (CaNT tumor vasculature; two equal split doses compared with a single dose, observed in both CaNT and T138 tumor models) | tumor growth delay ([1]; CaNT mice, single 200 mg/kg dose i.p.) | tumor growth delay ([1]; CaNT mice, two equal doses of 100 mg/kg separated by 3 hours) | tumor growth delay ([1]; CaNT, repeated split dosing, 2 doses of 25 mg/kg per day separated by 6 hours, 5 days a week for 2 weeks) | tumor growth delay ([1]; CaNT, repeated total daily dose 50 mg/kg, 5 days a week for 2 weeks) | effect on tumor growth relative to control ([1]; CaNT, single dose 50 mg/kg) | inhibition of microtubule assembly [2] | reduction of perfused vascular volume (T138 tumor vasculature; T138, single dose 200 mg/kg) | amount of perfused vascular tissue, of the control value (T138 tumor vasculature; T138, two split doses of 100 mg/kg) [%] | tumor growth delay ([3]; single dose of 500 mg/kg) | tumor growth delay ([3]; two equal doses of 250 mg/kg separated by 3 hours) | cell killing (surviving fraction of tumor cells) ([4]; two equal doses of 100 mg/kg i.p. separated by 1-6 hours, compared with a single 200 mg/kg dose, tumors excised 18-24 h after injection) | cell killing (surviving fraction of tumor cells) ([4]; two equal doses of 100 mg/kg, time interval between doses 2 to 4 hours (p<0.05)) | cell killing (surviving fraction of tumor cells) ([4]; unequal doses separated by 4 hours, compared with equal doses) | solubility [5] | tubulin binding activity (tubulin)
COc1ccc(/C=C\c2cc(OC)c(OC)c(OC)c2)cc1OP(=O)([O-])[O-].[Na+].[Na+] [CA4DP, Combretastatin A-4 Disodium Phosphate Prodrug] | 40 | 80 | significantly more effective than a single dose | did not delay growth relative to control | approximately 3 days | approximately 5 days | approximately 2 days | only minimal effects on tumor growth | potent inhibitor of microtubule assembly | completely ineffective | 50 | no effect on tumor growth | approximately 4 days | significantly more cell killing | most pronounced | less effective than equal doses of treatment |  | 
COc1ccc(/C=C\c2cc(OC)c(OC)c(OC)c2)cc1O [CA-4, Combretastatin A-4] |  |  |  |  |  |  |  |  |  |  |  |  |  |  |  |  | insolubility | found to have tubulin binding activity
